Results as given in patent publication US9271993B2, “Treatment of bacterial infectious diseases” (priority 2010, dated 2016).
In brackets after ≈: the same amount, converted by molar mass. Like-named read-outs stand apart in the source and are kept apart here.

How the values were obtained:
[1] = test system: clinical methicillin resistant Staphylococcus aureus (MRSA) isolates; assay: MIC against clinical MRSA isolates, LB microdilution assay
Description: Activity was assessed by determination of minimal inhibitory concentrations (MIC), as described in Pfister et al., Antimicrob. […] Cultures from single colonies were grown in LB medium and used for MIC tests in a microtiter plate format. Starting cultures contained 200 μl of bacterial cells at an optical density of 0.025 at 600 nm, and the respective drug was added in twofold series of dilution.

E. coli = assay: MIC against gram-negative bacteria; format: cell-based
Text: Agents Chemother. 2003, 47:1496-1502.

M. massiliense = assay: MIC against non-tuberculous rapidly-growing mycobacteria, microdilution; format: cell-based; conditions: Mycobacteroides abscessus, read-out: minimal inhibitory concentration (MIC)
Description: (§1) Activity of apramycin was assessed in standard microdilution assays and is expressed as minimal inhibitory concentration (MIC) in μg/ml.

M. bolletii = assay: as above; format: cell-based; conditions: Mycobacteroides abscessus, read-out: minimal inhibitory concentration (MIC)
Description: as §1

M. abscessus = assay: as above; format: cell-based; conditions: Mycobacteroides abscessus; strain 500039/08 M. abscessus; read-out: minimal inhibitory concentration (MIC)
Description: as §1

mitohybrid ribosomes = assay: Ribosomal drug susceptibility (MIC) of recombinant bacteria; set-up: MIC, mitohybrid ribosomes: unit not given beside the values; conditions: Table 7; 72 h incubation
[2] = test system: Cochlear explants from newborn mice; assay: Cochleatoxicity in vitro, hair cell loss in cochlear explants; format: cell-based
Description: FIG. 1: Cochleatoxicity in vitro
(a) Dose-response relationship of drug-induced hair cell loss in cochlear explants. Hair cell loss was quantified along the entire length of the explant and plotted against drug concentration. %=% outer hair cells missing.
Cochlear explants from newborn mice were treated with 0.5 mM aminoglycoside compound for 24 h; subsequently hair cell damage was assessed by epifluorescence microscopy.

cytohybrid ribosomes = assay: Ribosomal drug susceptibility (MIC) of recombinant bacteria; set-up: MIC, cytohybrid ribosomes: unit not given beside the values; conditions: Table 7; 72 h incubation
bacterial ribosomes = assay: as above; set-up: MIC, bacterial ribosomes: unit not given beside the values; conditions: Table 7; 72 h incubation

NC[C@H]1O[C@H](O[C@H]2[C@H](O)[C@@H](O[C@H]3O[C@H](CO)[C@@H](O)[C@H](N)[C@H]3O)[C@H](N)C[C@@H]2N)[C@H](O)[C@@H](O)[C@@H]1O [Kanamicin A]
MIC ([1]; MRSA AG047, strain 18-06R Gm^R): >256 µg/mL | MIC ([1]; MRSA AG049, strain 23-12R Gm^R): >256 µg/mL | MIC ([1]; MRSA AG050, strain 31-06R Gm^R): >256 µg/mL | MIC ([1]; MRSA AG051, strain 36-06R Gm^R): >256 µg/mL | MIC ([1]; MRSA AG052, strain 53-14I Gm^R): >256 µg/mL | MIC ([1]; Staphylococcus aureus, MRSA): > 256 µg/mL | MIC ([1]; Staphylococcus aureus, MRSA, MRSA AG038, strain 70-26S Gm^S): 4 µg/mL (≈ 8.26 µM) | MIC ([1]; Staphylococcus aureus, MRSA, MRSA AG040, strain 87-26S Gm^S): 128 to 256 µg/mL (≈ 264 to 528 µM) | MIC ([1]; Staphylococcus aureus, MRSA, MRSA AG041, strain 98-25S Gm^S): 2 to 4 µg/mL (≈ 4.13 to 8.26 µM) | MIC ([1]; Staphylococcus aureus, MRSA, MRSA AG042, strain 101-06R Gm^R): 256 µg/mL (≈ 528 µM) | MIC ([1]; Staphylococcus aureus, MRSA, MRSA AG043, strain 01-08R Gm^R): 128 to 256 µg/mL (≈ 264 to 528 µM) | MIC ([1]; Staphylococcus aureus, MRSA, MRSA AG044, strain 07-12R Gm^R): 64 µg/mL (≈ 132 µM) | MIC ([1]; Staphylococcus aureus, MRSA, MRSA AG045, strain 08-12R Gm^R): 64 µg/mL (≈ 132 µM) | MIC ([1]; Staphylococcus aureus, MRSA, MRSA AG048, strain 20-06R Gm^R): > 512 µg/mL | MIC ([1]; Staphylococcus aureus, MRSA, MRSA AG053, strain 56-06R Gm^R): 256 µg/mL (≈ 528 µM) | MIC (E. coli; Escherichia coli, E. coli AG01, clin. isol. (Gm^S), read-out: MIC): 16 µg/mL (≈ 33 µM) | MIC (E. coli; Escherichia coli, E. coli AG02, clin. isol (Gm^S), read-out: MIC): 4 to 8 µg/mL (≈ 8.26 to 16.5 µM) | MIC (E. coli; Escherichia coli, E. coli AG03, clin. isol (Gm^R), read-out: MIC): 16 to 32 µg/mL (≈ 33 to 66 µM) | MIC (E. coli; Escherichia coli, E. coli AG06, BM13, read-out: MIC): 1 to 2 µg/mL (≈ 2.06 to 4.13 µM) | MIC (E. coli; Escherichia coli, E. coli AG07, BM13/pIP135, resistance mechanism AAC(3), read-out: MIC): 8 µg/mL (≈ 16.5 µM) | MIC (E. coli; Escherichia coli, E. coli AG08, BM13/pIP055, resistance mechanism ANT(2″), read-out: MIC): 16 to 128 µg/mL (≈ 33 to 264 µM) | MIC (E. coli; Escherichia coli, E. coli AG09, AAC(6′)-1B, resistance mechanism AAC(6′), read-out: MIC): 256 to 512 µg/mL (≈ 528 to 1060 µM) | MIC (E. coli; Escherichia coli, E. coli AG36, HB101/pAT197, resistance mechanism ANT(4′), read-out: MIC): 16 to 32 µg/mL (≈ 33 to 66 µM) | MIC (E. coli; Escherichia coli, E. coli AG37, HB101/pAG21-1, resistance mechanism APH(3′), read-out: MIC): > 256 µg/mL | MIC (M. massiliense; strain 177217/10 M. massiliense): 32 µg/mL (≈ 66 µM) | MIC (M. massiliense; strain 186139/07 M. massiliense): 32 µg/mL (≈ 66 µM) | MIC (M. massiliense; strain 500044/09 M. massiliense): 16 µg/mL (≈ 33 µM) | MIC (M. bolletii; strain 179639/10 M. bolletii): 64 µg/mL (≈ 132 µM) | MIC (M. bolletii; strain 181739/08 M. bolletii): 64 µg/mL (≈ 132 µM) | MIC (M. bolletii; strain 183177/08 M. bolletii): 16 µg/mL (≈ 33 µM) | MIC (M. abscessus): 4 µg/mL (≈ 8.26 µM)

Neomycin
MIC ([1]; MRSA AG038, strain 70-26S Gm^S): 0.5 to 1 µg/mL | MIC ([1]; MRSA AG040, strain 87-26S Gm^S): 128 µg/mL | MIC ([1]; MRSA AG041, strain 98-25S Gm^S): 0.5 to 1 µg/mL | MIC ([1]; MRSA AG042, strain 101-06R Gm^R): 128 µg/mL | MIC ([1]; MRSA AG043, strain 01-08R Gm^R): 1 to 4 µg/mL | MIC ([1]; MRSA AG044, strain 07-12R Gm^R): 0.5 to 1 µg/mL | MIC ([1]; MRSA AG045, strain 08-12R Gm^R): 0.5 to 1 µg/mL | MIC ([1]; MRSA AG046, strain 12-06R Gm^R): >256 µg/mL | MIC ([1]; MRSA AG047, strain 18-06R Gm^R): 256 µg/mL | MIC ([1]; MRSA AG048, strain 20-06R Gm^R): 256 µg/mL | MIC ([1]; MRSA AG049, strain 23-12R Gm^R): >256 µg/mL | MIC ([1]; MRSA AG050, strain 31-06R Gm^R): 64 µg/mL | MIC ([1]; MRSA AG051, strain 36-06R Gm^R): 64 µg/mL | MIC ([1]; MRSA AG052, strain 53-14I Gm^R): >256 µg/mL | MIC ([1]; MRSA AG053, strain 56-06R Gm^R): 0.5 to 1 µg/mL | MIC (E. coli; E. coli AG01, clin. isol. (Gm^S)): 8 to 16 µg/mL | MIC (E. coli; E. coli AG02, clin. isol (Gm^S)): 4 µg/mL | MIC (E. coli; E. coli AG03, clin. isol (Gm^R)): 4 µg/mL | MIC (E. coli; E. coli AG06, BM13): 1 µg/mL | MIC (E. coli; E. coli AG07, BM13/pIP135, resistance mechanism AAC(3)): 4 µg/mL | MIC (E. coli; E. coli AG08, BM13/pIP055, resistance mechanism ANT(2″)): 2 to 4 µg/mL | MIC (E. coli; E. coli AG09, AAC(6′)-1B, resistance mechanism AAC(6′)): 8 to 32 µg/mL | MIC (E. coli; E. coli AG36, HB101/pAT197, resistance mechanism ANT(4′)): 32 µg/mL | MIC (E. coli; E. coli AG37, HB101/pAG21-1, resistance mechanism APH(3′)): >256 µg/mL | MIC, mitohybrid ribosomes (mitohybrid ribosomes): 32 | Hair cell count ([2]; 0.5 mM aminoglycoside for 24 h, epifluorescence microscopy): almost all hair cells (inner and outer) missing | inner and outer hair cells missing / lost ([2]; 0.5 mM, FIG. 1): > 80% | MIC, cytohybrid ribosomes (cytohybrid ribosomes): 1024 | MIC, bacterial ribosomes (bacterial ribosomes): 1
